In patent publication US10471030B2, “Immunomodulatory and differentiating function selective retinoid and rexinoid compounds in combination with immune modulators for cancer immunotherapy” (Io Therapeutics, Inc., priority 2017, dated 2019):

Tests used:
[1] = test system: MM cell lines and MM CD138+ primary cells; experiment: BTZ sensitivity of MM cells, clonogenic or cellular recovery, liquid or BM stroma; format: cell-based, human; settings: for BTZ resistance after separation from BM stroma: H929 cells, 5-day stroma co-culture, fresh media 0 to 48 hr; for sensitivity of MM cells to BTZ: BTZ 2.5 nM for 48 hr
Experimental: (§1) 24-well plates were coated with 0.1% gelatin in PBS for 30 min at 37° C. The gelatin solution was removed, and the stromal cells were cultured overnight at a density of 5×10^4 cells/well to obtain a confluent monolayer. At that time, MM cell lines or primary MM cells (1×10^5 in 2 ml) were added to the stroma cultures. The stroma cocultures were incubated at 37° C. in RPMI containing 10% FCS, L-glutamine, and P/S, with or without AGN194310 (1 μM for 5 days), R115866 (1 μM for 5 days), IRX5183 (1 μM for 5 days), or BTZ (2.5 nM for 48 hr).
MM cells were separated from BM stromal cells by gently pipetting several times around the well. Detached cells were centrifuged, resuspended in fresh media, and incubated in a 24-well plate for 1 hr at 37° C. During this short incubation period, contaminating stromal cells attached to the well, while MM cells remained in suspension. MM cells were then recovered by gently pipetting. This protocol was used for qRT-PCR and CFU coculture experiments. The purity achieved using this protocol was confirmed by flow cytometry to be 98%-99% MM cells and less than 2% contaminating stroma.
After treatment, MM cells were collected, washed with PBS, and plated at a density of 5,000 cells/ml in 1 ml of 1.32% methylcellulose supplemented with 30% FBS, 10% BSA, L-glutamine, P/S, and 0.1 mM β-ME. Cells were plated in triplicate in 35-mm culture dishes, incubated at 37° C., and scored for the presence of colonies 14 days later.
To determine whether decreased retinoid signaling contributes to BTZ resistance within the BM niche, MM cell lines and MM CD138+ primary cells were incubated with BM stroma for 5 days, followed by BTZ treatment.
Strategies to overcome microenvironment-dependent chemoprotection have focused on mobilization of cancer cells from the BM niche into the peripheral circulation. It was analyzed whether the change in phenotype and subsequent BTZ resistance of MM cells were lost upon separation from the BM stroma, a process that mimics mobilization. To this end, H929 cells were separated from BM mesenchymal cells following a 5-day stroma co-culture, incubated in fresh media (RPMI with 10% FBS) for 0 to 48 hr, and then treated with BTZ. […] Thus, microenvironment-dependent BTZ resistance induced by the change in MM cell phenotype may not immediately be reversed by tumor mobilization.

[2] = test system: MM H929 cell lines and MM CD138+ primary cells; experiment: mRNA expression of B cell and PC markers in MM cells, liquid or BM stroma co-culture (qRT-PCR); format: cell-based, human; settings: 1 μM for 5 days; for expression of differentiation markers: liquid conditions (absence of stroma)
Experimental: as §1
(§2) Total RNA was extracted using the RNeasy Mini Kit (QIAGEN) according to the manufacturer's instructions. cDNA was synthesized by reverse transcription using the iScript cDNA Synthesis Kit (Bio-Rad). qRT-PCR was performed with iTaq SYBR Green Supermix (Bio-Rad) using sequence specific primers. Gene expression was normalized to GAPDH, and relative quantification was calculated using ΔΔCt. All experiments were performed in duplicate and run on the Bio-Rad CFX96 machine.
The BM microenvironment (also called “niche”) limits PC differentiation by modulating retinoid signaling. A population of MM progenitors, phenotypically similar to B cells, is intrinsically resistant to BTZ and contributes to MRD and relapse. To investigate whether the BM niche plays a role in determining the phenotype of MM cells, the mRNA expression of B cell and PC markers in MM H929 cell lines (FIGS. 3A-D) and MM CD138+ primary cells (FIGS. 3E-H) was analyzed following co-culture with mouse BM stroma using human-specific primers. […] In contrast, co-culture of MM cells with BM stroma decreased the mRNA expression of B lymphocyte-induced maturation protein 1 (BLIMP1) and spliced X box-binding protein 1 (XBP1s) (FIG. 3B, C, F, G), which are critical mediators of PC differentiation.
The BM niche regulates hematopoietic stem cell (HSC) differentiation by expressing the retinoid-inactivating enzyme CYP26. CYP26 enzymes were highly expressed in BM mesenchymal cells, while their expression was barely detectable in MM cells. Since retinoid signaling promotes PC differentiation and potentiates Ig secretion, it was determined whether stromal CYP26 is responsible for inducing a B cell phenotype in MM cells. To this end, co-culture conditions were treated with the CYP26 inhibitor R115866 (R115) or the CYP26-resistant RA receptor α-selective (RARα-selective) retinoid IRX5183 (IRX).

MM cells = experiment: surface CD138 expression of MM cells (flow cytometry); format: cell-based, human; settings: 1 μM
Experimental: as §1
Following treatment, MM cells were collected, washed with PBS, and stained for 15 min at room temperature with phycoerythrin-conjugated (PE-conjugated) anti-CD138. Cells were washed to remove unbound antibody and evaluated in a FACSCalibur system (BD Biosciences). Stromal cells were identified by GFP expression, and viable cells were identified using 7-aminoactinomycin D (7-AAD). To calculate cell numbers, live GFP-cells were normalized to calibration beads.
Expression of CD138 is a hallmark of normal PC differentiation as well MM PCs.

CD4+ T cells = experiment: in vivo T cell differentiation in mice (FoxP3 expression in CD4+ T cells of blood and spleen); set-up: species or system mouse; settings: in vivo assay; data not shown
Experimental: To expand on the finding above, the in vivo effects of a RARα agonist on T cell differentiation was evaluated in a mouse model. Mice were treated with 100 μg of compound IRX5183 or an equivalent volume of DMSO (vehicle control) every other day for 10 days. Lymphocytes from the blood and spleen were then isolated and FoxP3 expression in CD4^+ T cells was assessed.

[3] = test system: Naive CD4+ CD25− FoxP3− cells; experiment: Th17 cell differentiation from naive T cells in vitro; format: cell-based, mouse; settings: in vitro assay; data not shown
Experimental: (§3) To determine whether a RARα agonist could affect T cell differentiation, T cells were incubated with a RARα agonist to determine its effect on Foxp3 expression. Naive CD4^+ CD25^− FoxP3^− cells were purified from a Foxp3-GFP mouse using flow cytometry by sorting and isolating based upon a GFP^− phenotype. These cells were activated polyclonally with αCD3 in vitro in the presence of IL-2 and TGF-β. These cells were then cultured in media with various concentrations of compound IRX5183 (a RARα agonist) and the expression of FoxP3-GFP was analyzed by flow cytometry. The RARα agonist compound IRX5183 enhanced differentiation of immunosuppressive Treg cells and inhibited differentiation of inflammatory TH17 cells from naïve T cells in vitro (Table 2).

[4] = test system: Naive CD4+ CD25− FoxP3− cells; experiment: Treg cell differentiation from naive T cells in vitro (FoxP3-GFP, flow cytometry); format: cell-based, mouse; settings: in vitro assay; data not shown
Experimental: as §3

B16F10 tumor cells = experiment: survival of C57BL/6 mice engrafted with B16F10 tumor cells; format: in vivo; settings: at 50 days; 10 nM RARγ agonist; vehicles only 0%
Experimental: The anti-tumor effects of anti-CTLA-4 antibody treatment combined with 10 nM RAR ? agonist (AGN204647 (IRX4647)) are examined in C57BL/6 mice engrafted with B16F10 tumor cells. […] The survival rate of the mice treated with anti-CTLA-4 antibody alone is 40% at 50 days while the mice treated with RAR ? agonist alone have a 30% survival in the same time.

OCI-AML3 cells = experiment: CFU experiments off and on stroma, OCI-AML3 cells; format: cell-based; settings: 10^−6 M ATRA, IRX5183, or 10^−7 M AM80
Source text: (§4) Data across three independent experiments.

Kasumi-1 cells = experiment: CFU experiments off and on stroma, Kasumi-1 cells; format: cell-based; settings: 10^−6 M ATRA, IRX5183, or 10^−7 M AM80
Source text: as §4

NB4 cells = experiment: CFU experiments off and on stroma, NB4 cells; format: cell-based; settings: 10^−7 M ATRA, IRX5183, or 10^−8 M AM80
Source text: as §4

[5] = test system: H929 luciferase+ (Luc+) cells; experiment: systemic MM xenograft, bioluminescence; format: in vivo, NSG mice; settings: monotherapy, 4 weeks; BTZ 0.5 mg/kg i.p. twice weekly, IRX 10 mg/kg once daily
Experimental: For the systemic MM model, 2×10^6 Luc+/GFP+ H929 cells were injected via the tail vein into 16-week-old male NSG mice. After engraftment, as determined by an exponential increase in bioluminescence, mice were treated with BTZ (0.5 mg/kg i.p.) twice weekly and with IRX (10 mg/kg) once daily. Tumor burden was assessed by bioluminescence, as above.
To test whether retinoids can enhance BTZ activity in MM, a systemic MM xenograft was developed by injecting 2×10^6 H929 luciferase+ (Luc+) cells via the tail vein of non-obese, diabetic, severe combined immunodeficiency IL-2 receptor γ-KO (NSG) mice. The animals were randomized to receive IRX, BTZ, or a combination of both, and disease burden was followed weekly by bioluminescence imaging (FIG. 6).

H929 Luc+ cells = experiment: subcutaneous xenograft model of MM-niche interactions with WT or Smo-KO stroma, bioluminescence; format: in vivo, NSG mice; settings: BTZ 0.5 mg/kg i.p. twice weekly
Experimental: 1×10^6 H929 Luc+ cells and 1×10^6 mouse BM stromal cells were resuspended in 100 μl […]®, diluted with RPMI (1:1), and injected subcutaneously into 16-week-old male NSG mice. After 4 days, treatment with BTZ (0.5 mg/kg i.p. twice weekly) and IRX (10 mg/kg i.p. daily) was initiated. Tumor burden was assessed by bioluminescence using the In Vivo Imaging System (PerkinElmer). For imaging, mice were exposed to 120 mg/kg D-luciferin via intraperitoneal injection […] before imaging and were anesthetized using isoflurane. Images were analyzed with Living Image Software, version 2.5 (PerkinElmer), and data were quantified as photons/second.
To study to what extent an RA-low environment created by the BM stroma and enhanced by MM cells via paracrine Hedgehog signaling contributes to BTZ resistance, a xenograft model of MM-niche interactions was developed. Each mouse carried 2 subcutaneous tumors consisting of H929 Luc+ cells and either WT (anterior tumors) or Smo-KO stroma (posterior tumors). Mice were treated with IRX (10 mg/kg i.p. daily), BTZ (0.5 mg/kg i.p. twice weekly), or a combination of both. The growth of tumors bearing WT or Smo-KO stroma was not different in untreated or IRX-treated groups (FIGS. 9 and 10). […] While some tumors in the treatment group receiving combined IRX and BTZ appeared to have regressed completely, even after anatomical study, this was not the case for all the mice in this group.

CYP26A1 = experiment: stromal CYP26A1 expression in BM stromal cells (qRT-PCR); format: cell-based; settings: for CYP26A1 expression on BM stromal cells: soluble factors tested
Experimental: as §2

Molecule: CCc1ccc(C2=CC(C)(C)Sc3ccc(C#Cc4ccc(C(=O)O)cc4)cc32)cc1 [AGN194310]
- BTZ sensitivity of MM cells ([1]; liquid, 1 μM for 5 days, then BTZ): decreasing BTZ sensitivity
- expression of differentiation markers [2]: mimicked the changes induced by BM stromal cells
- surface CD138 expression (MM cells; without stroma): markedly decreased

Molecule: CCOc1c(Br)cc(C(=O)Nc2ccc(C(=O)O)cc2)cc1C(=O)c1ccc(C)cc1 [AGN196996]
- Th17 cell numbers (CD4+ T cells): increases Th17 cell numbers
- Treg cell numbers (CD4+ T cells): decreases Treg cell numbers
- Th17 cell numbers [3]: increases Th17 cell numbers
- Treg cell numbers [4]: decreases Treg cell numbers

Molecule: CC1(C)CCC(C)(C)c2cc(C(/C=C/c3cccc(C(=O)O)c3)=N/O)ccc21 [AGN204647]
- survival rate (B16F10 tumor cells): 30%

Molecule: CC1(C)CCC(C)(C)c2cc(NC(=O)c3ccc(C(=O)O)cc3)ccc21 [AM80, 4-[(5,6,7,8-tetrahydro-5,5,8,8-tetramethyl-2-naphthalenyl)carbamoyl]benzoic acid]
- clonogenic growth (CFU) (OCI-AML3 cells): decrease in clonogenic growth compared to control
- clonogenic growth (CFU) (Kasumi-1 cells): decrease in clonogenic growth compared to control
- clonogenic growth (CFU) (NB4 cells): decrease in clonogenic growth compared to control

Molecule: CC1=C(/C=C/C(C)=C/C=C/C(C)=C/C(=O)O)C(C)(C)CCC1 [ATRA, all-trans retinoic acid]
- clonogenic growth (CFU) (OCI-AML3 cells): stroma blockage
- clonogenic growth (CFU) (Kasumi-1 cells): stroma blockage
- clonogenic growth (CFU) (NB4 cells): stroma blockage

Molecule: CC(C)C[C@H](NC(=O)[C@H](Cc1ccccc1)NC(=O)c1cnccn1)B(O)O [BTZ, bortezomib]
- BTZ resistance after separation from BM stroma ([1]; then BTZ): remained partially resistant to BTZ for up to 48 hr
- sensitivity of MM cells to BTZ ([1]; absence of BM stroma (liquid)): highly sensitive
- sensitivity of MM cells to BTZ ([1]; after 5 days incubation with BM stroma): induced BTZ resistance
- tumor burden (bioluminescence) [5]: decreased tumor growth compared with untreated controls
- response of tumors carrying Smo-KO stroma (bioluminescence) (H929 Luc+ cells): significant response
- response of tumors with WT stroma (bioluminescence) (H929 Luc+ cells): refractory to BTZ treatment

Molecule: CCC(CC)C(c1ccc(Nc2nc3ccccc3s2)cc1)n1cncn1 (stereo not shown) [Compound R115866]
- stroma-induced BTZ resistance ([1]; BM stroma with 1 μM test agent for 5 days, then BTZ 2.5 nM for 48 hr): overcome
- BTZ resistance after separation from BM stroma ([1]; then BTZ): prevented the development of a BTZ-resistant phenotype
- mRNA expression of BCL6, BLIMP1, XBP1s, CHOP markers ([2]; BM stroma co-cultures): restored all markers to levels comparable to those of liquid control conditions
- expression of differentiation markers [2]: did not significantly affect
- surface CD138 expression (MM cells; BM stromal cell co-cultures): restored CD138 expression

Molecule: CC1=C2C[C@H]3[C@@H](CC=C4C[C@@H](O)CC[C@@]43C)[C@@H]2CC[C@]12O[C@@H]1C[C@H](C)CN[C@H]1[C@H]2C [cyclopamine]
- stromal Cyp26a1 upregulation by MM cells (CYP26A1; co-culture with MM cells): partially overcame

Molecule: IL-6: cytokine, soluble factor tested
- CYP26A1 expression on BM stromal cells (CYP26A1): no significant effects

Molecule: TNF-α
- CYP26A1 expression on BM stromal cells (CYP26A1): no significant effects
